Assay results reported in article PMC9995496, “A screen for MeCP2-TBL1 interaction inhibitors using a luminescence-based assay” (Scientific Reports, 2023).
Where a name gives a salt, the structure may show the parent alone. Read-outs that look alike come from different tables or passages of the source. Square brackets hold non-standard residues; d marks the D form. Peptide text beside a SMILES is read from it. * marks the point of attachment. ξ: configuration not given here. Nva = CCC[C@H](N)C(=O)O; Cbz = O=C(OCc1ccccc1)*; ξL = CC(C)CC(N)C(=O)O; ξM = CSCCC(N)C(=O)O

Test system: PRKACA-PRKAR2A interaction (SmBiT-PRKACA / LgBiT-PRKAR2A), protein kinase A
Parameters: NanoLuc complementation counter-screen in cell extract, PRKACA with PRKAR2A, loss of luminescence, detects NanoLuc interference
Conditions: 0.5 h, 20 µM, inhibitor
[1] = counter-screen for NanoLuc interference
[2] = counter-screen for NanoLuc interference, Inh (PKA)

Inh (PKA) [1] [%] | SMILES | also measured
0.7087 | NCCC(O)(P(=O)(O)O)P(=O)(O)O [UM0141459:01, Pamidronate Disodium] | 
47.84 | CC(=O)[C@]1(O)Cc2c(O)c3c(c(O)c2[C@@H](O[C@H]2C[C@H](N)[C@H](O)[C@H](C)O2)C1)C(=O)c1ccccc1C3=O [UM0141460:01, Idarubicin HCl] | 
3.507 | CC(C)(F)C[C@H](N[C@@H](c1ccc(-c2ccc(S(C)(=O)=O)cc2)cc1)C(F)(F)F)C(=O)NC1(C#N)CC1 [UM0141461:01, Odanacatib (MK-0822)] | 
18.25 | Cc1ccc(Sc2ccccc2N2CCNCC2)c(C)c1 [UM0141466:01, Vortioxetine (Lu AA21004) HBr] | 
0.9653 | CC(=O)N[C@@H](CC(C)C)C(=O)N[C@@H](CC(C)C)C(=O)N[C@H](C=O)CCCNC(=N)N [UM0141467:01, Leupeptin, Microbial] | 
1.977 | CNC(=O)[C@H](Cc1ccccc1)NC(=O)[C@H](CC(C)C)[C@H](CSc1cccs1)C(=O)NO [UM0141470:01, Batimastat (BB-94)] | 
6.639 | CC(C)C[C@@H](C=O)NC(=O)[C@H](CC(C)C)NC(=O)[C@H](CC(C)C)NC(=O)OCc1ccccc1 [UM0141471:01, MG-132] (Cbz-Leu-Leu-Leu-aldehyde) | 
1.385 | CSCCC(C=O)NC(=O)C(CC(C)C)NC(=O)[C@H](CC(C)C)NC(C)=O (stereo partly shown) [UM0141476:01, Calpain Inhibitor II, ALLM] (Ac-Leu-[ξL]-[ξM]-aldehyde) | 
1.438 | CC[C@H](C)[C@H](NC(=O)[C@H]([C@@H](C)CC)N(C)C(C)=O)C(=O)N[C@H](C(=O)N[C@@H](CC(C)C)C(=O)[C@@]1(C)CO1)[C@@H](C)O [UM0141477:01, Epoxomicin] | 
4.161 | CCC[C@@H](C=O)NC(=O)[C@H](CC(C)C)NC(=O)[C@H](CC(C)C)NC(=O)OCc1ccccc1 [UM0141478:01, MG-115] (Cbz-Leu-Leu-[Nva]-aldehyde) | 
45.75 | Cc1cc(C(C)Nc2ccccc2)c2nc(N3CCOCC3)cc(=O)n2c1 (stereo not shown) [UM0141481:01, TGX-221] | 
37.25 | Nc1nc(N)c2nc(-c3cccc(O)c3)c(-c3cccc(O)c3)nc2n1 [UM0141482:01, TG100-115] | 
45.28 | O=C(Nc1cccc(Nc2ncc(Br)c(NCCc3cnc[nH]3)n2)c1)N1CCCC1 [UM0141484:01, BX-912] | 
24.24 | Cc1c(NC(=O)OC[C@@H]2COCCN2)cn2ncnc(Nc3ccc4c(cnn4Cc4cccc(F)c4)c3)c12 [UM0141485:01, AC480 (BMS-599626)] | 
39.72 | O=C(Nc1ccc(OC(F)(F)F)cc1)c1sccc1NCc1ccnc2ccccc12 [UM0141486:01, OSI-930] | 
2.676 | CCN(CC)C(=O)c1ccc(C2=CC3(CCNCC3)Oc3cccc(O)c32)cc1 [UM0141492:01, ADL5859 HCl] | 
7.222 | CC[C@H](Nc1ncnc2[nH]cnc12)c1nc2cccc(F)c2c(=O)n1-c1ccccc1 [UM0141495:01, CAL-101 (Idelalisib, GS-1101)] | 
42.22 | CC(C)NC[C@@H](C(=O)N1CCN(c2ncnc3c2[C@H](C)C[C@H]3O)CC1)c1ccc(Cl)cc1 [UM0141496:01, GDC-0068 (RG7440)] | 
-0.2397 | CC1(C)CCC(c2ccc(Cl)cc2)=C(CN2CCN(c3ccc(C(=O)NS(=O)(=O)c4ccc(N[C@H](CCN5CCOCC5)CSc5ccccc5)c(S(=O)(=O)C(F)(F)F)c4)cc3)CC2)C1 [UM0141497:01, ABT-263 (Navitoclax)] | 
7.459 | Nc1cc(C(F)(F)F)c(-c2cc(N3CCOCC3)nc(N3CCOCC3)n2)cn1 [UM0141503:01, BKM120] | 
0.8145 | CN[C@@H](C)C(=O)N[C@H]1CN(C(=O)CC(C)C)CC[C@H]2CC[C@@H](C(=O)NC(c3ccccc3)c3ccccc3)N2C1=O [UM0141504:01, AT-406 (SM-406)] | 
10.35 | C[C@@H](Oc1cc(-c2cnn(C3CCNCC3)c2)cnc1N)c1c(Cl)ccc(F)c1Cl [UM0141505:01, (R)-Crizotinib] | 
18.13 | Nc1ncnc2c1c(I)cn2[C@@H]1O[C@H](CO)[C@@H](O)[C@H]1O [UM0141507:01, 5-Iodotubercidin] | 
3.342 | O=C(NC[C@@H]1CN(c2ccc(N3CCOCC3=O)cc2)C(=O)O1)c1ccc(Cl)s1 [UM0141508:01, 5-R-Rivaroxaban] | 
2.063 | Nc1nc(NC2CC2)c2ncn([C@H]3C=C[C@@H](CO)C3)c2n1 [UM0141511:01, Abacavir] | 
2.062 | N#Cc1ccc(Oc2ccc3c(c2)COB3O)cc1 [UM0141516:01, AN-2728] | 
2.084 | COc1cc(N2CCC(N3CCN(C)CC3)CC2)ccc1Nc1ncnc(Nc2ccccc2S(=O)(=O)C(C)C)n1 [UM0141520:01, ASP3026] | 

More lines, now with the values behind:

SMILES | Inh (PKA) [1] [%] | also measured
C[C@H]1O[C@H](O[C@H]2[C@H](O)[C@@H](O)[C@@H](O[C@H]3[C@H](O)[C@@H](O)C(O)O[C@@H]3CO)O[C@@H]2CO)[C@H](O)[C@@H](O)[C@@H]1N[C@H]1C=C(CO)[C@@H](O)[C@H](O)[C@H]1O (stereo partly shown) [UM0141458:01, Acarbose] | 2.661 | 
Nc1nc(=O)c2c([nH]1)NCC(CNc1ccc(C(=O)N[C@@H](CCC(=O)O)C(=O)O)cc1)N2C=O (stereo partly shown) [UM0141462:01, Leucovorin Calcium] | 1.727 | 
CN[C@H]1C[C@@H](N)[C@H](O)[C@@H](O[C@@H]2O[C@H](CO)[C@H](O)[C@@H]3OC4(O[C@H]23)O[C@H]([C@@H](N)CO)[C@H](O)[C@H](O)[C@H]4O)[C@@H]1O (stereo partly shown) [UM0141464:01, Hygromycin B] | 0.3498 | 
NC[C@H]1O[C@H](O[C@H]2[C@H](O)[C@@H](O[C@H]3O[C@H](CO)[C@@H](O)[C@H](N)[C@H]3O)[C@H](N)C[C@@H]2N)[C@H](O)[C@@H](O)[C@@H]1O [UM0141465:01, Kanamycin Sulfate] | 1.064 | 
CC(C)C[C@H](NC(=O)[C@@H](O)[C@H](N)Cc1ccccc1)C(=O)O [UM0141468:01, Bestatin] | 1.556 | 
Cc1cc2c(F)c(Oc3ncnn4cc(OC[C@@H](C)O)c(C)c34)ccc2[nH]1 [UM0141474:01, Brivanib (BMS-540215)] | 42.48 | 
Cc1cc2c(F)c(Oc3ncnn4cc(OC[C@@H](C)OC(=O)[C@H](C)N)c(C)c34)ccc2[nH]1 [UM0141479:01, Brivanib Alaninate (BMS-582664)] | 33.56 | 
CC(C)(CO)c1cc2cc(NC(=O)C3(c4ccc5c(c4)OC(F)(F)O5)CC3)c(F)cc2n1C[C@@H](O)CO [UM0141480:01, VX-661] | 12.93 | 
CN(C)CCN1C(=O)c2cccc3cc(N)cc(c23)C1=O [UM0141483:01, Amonafide] | 12.14 | 
NCC(=O)Nc1ccc(-n2nc(C(F)(F)F)cc2-c2ccc3c(ccc4ccccc43)c2)cc1 [UM0141487:01, OSU-03012 (AR-12)] | 5.116 | 
NC(=O)Cc1cccc(C(=O)c2ccccc2)c1N [UM0141488:01, Nepafenac] | 7.116 | 
Cc1ccc(F)c(NC(=O)Nc2ccc(-c3cccc4[nH]nc(N)c34)cc2)c1 [UM0141489:01, Linifanib (ABT-869)] | 45.3 | 
COc1cc2c(Oc3ccc(NC(=O)C4(C(=O)Nc5ccc(F)cc5)CC4)cc3F)ccnc2cc1OCCCN1CCOCC1 [UM0141490:01, Foretinib (GSK1363089)] | 3.567 | 
COc1cc2nccc(Oc3ccc(NC(=O)C4(C(=O)Nc5ccc(F)cc5)CC4)cc3)c2cc1OC [UM0141491:01, Cabozantinib (XL184, BMS-907351)] |  | Inh (PKA) [2]: 10.46%
C=CC(=O)N1CCC[C@@H](n2nc(-c3ccc(Oc4ccccc4)cc3)c3c(N)ncnc32)C1 [UM0141493:01, PCI-32765 (Ibrutinib)] | 23.88 | 
C[C@@H](N)[C@H]1CC[C@H](C(=O)Nc2ccncc2)CC1 [UM0141498:01, Y-27632 dihydrochloride] |  | Inh (PKA) [2]: -3.616%
C[C@@H](N)[C@H]1CC[C@H](C(=O)Nc2ccncc2)CC1 [UM0141498:02, Y-27632] |  | Inh (PKA) [2]: -5.28%
Cc1cnc(-c2cnc(NCCNc3ccc(C#N)cn3)nc2-c2ccc(Cl)cc2Cl)[nH]1 [UM0141499:01, CHIR-99021 (CT99021)] | 50.27 | 
N#CC[C@H](C1CCCC1)n1cc(-c2ncnc3[nH]ccc23)cn1 [UM0141500:01, Ruxolitinib (INCB018424)] |  | Inh (PKA) [2]: 28.73%
CCN1CCN(c2ccc(Nc3cc(N(C)C(=O)Nc4c(Cl)c(OC)cc(OC)c4Cl)ncn3)cc2)CC1 [UM0141502:01, BGJ398] | -0.1399 | 
Cc1n[nH]c2ccc(-c3cncc(OC[C@@H](N)Cc4c[nH]c5ccccc45)c3)cc12 [UM0141510:01, A-443654] | 34.74 | 
CN(C)C/C=C/C(=O)Nc1cc2c(Nc3ccc(F)c(Cl)c3)ncnc2cc1O[C@H]1CCOC1 [UM0141512:01, Afatinib dimaleate] |  | Inh (PKA) [2]: 6.216%
CN(C)C/C=C/C(=O)Nc1cc2c(Nc3ccc(F)c(Cl)c3)ncnc2cc1O[C@H]1CCOC1 [UM0141512:02, Afatinib (BIBW2992)] |  | Inh (PKA) [2]: 5.289%
O=C(Nc1cccc(C(F)(F)F)c1)Nc1cc(S(=O)(=O)NC2CC2)ccc1-c1ccsc1 [UM0141513:01, AGI-6780] | 24.76 | 
Cn1c(=O)cc(N2CCC[C@@H](N)C2)n(Cc2ccccc2C#N)c1=O [UM0141514:01, Alogliptin Benzoate] |  | Inh (PKA) [2]: 3.371%
COc1cc2cc(c1Cl)N(C)C(=O)C[C@H](OC(=O)C(C)C)[C@]1(C)O[C@@H]1[C@H](C)[C@@H]1C[C@@](O)(NC(=O)O1)[C@H](OC)/C=C/C=C(\C)C2 [UM0141517:01, Ansamitocin P-3] |  | Inh (PKA): 6.121%
N#CC(c1ccnc(OCc2ccc(CN3CCOCC3)cc2)n1)c1nc2ccccc2s1 (stereo not shown) [UM0141518:01, AS 602801] | 8.348 | 
CC[C@@H]1/C=C(\C)C[C@H](C)C[C@H](OC)[C@H]2O[C@@](O)(C(=O)C(=O)N3CCCC[C@H]3C(=O)O[C@H](/C(C)=C/[C@@H]3CC[C@@H](O)[C@H](OC)C3)[C@H](C)[C@@H](O)CC1=O)[C@H](C)C[C@@H]2OC [UM0141519:01, Ascomycin(FK 520)] |  | Inh (PKA): 13.3
